# Results published in patent US7078400B2, “20-HETE synthase inhibitor” (Taisho Pharmaceutical Co., Ltd., priority 1999, dated 2006).
# Legend:
# [1] = tested on: 20-HETE synthase originated from rat kidney microsome; experiment: Inhibitory effect of 20-HETE synthase originated from rat kidney microsome; assay type: biochemical; conditions: for Inhibition rate (1 μM): 20-HETE production without compound set to 100%
# How it was run: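 Kidney microsomes from 6-week male spontaneously hypertensive rats were used with tritium-arachidonic acid and NADPH. 20-HETE was quantified by radio-HPLC on a C18 column.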
# [2] = 1 μM of subject compound, rat kidney microsome
# [3] = concentration at which 20-HETE production was inhibited to 50%, rat kidney microsome
# [4] = 1 μM of the subject compound added, rat kidney microsome
# [5] = concentration at which production of 20-HETE was inhibited to 50%, rat kidney microsome
# [6] = concentration at which production of 20-HETE was inhibited to 50%
"IC50 [1, 3] [nM]",melting point [°C],"IC50 [1, 5] [nM]","IC50 [1, 6] [nM]",SMILES,"Inhibition rate (1 μM) [1, 2]","Inhibition rate (1 μM) [1, 4]",Inhibition rate (1 μM) ([1]; 1 μM of the subject compound)
11.6,138 to 140,,,OCCc1ccc(N/C=N/O)cc1 [Comp. 207],90.7,,
,163.5 to 164.5,,,Cc1cc(C)c(N/C=N/O)c(Br)c1 [Comp. 45],,53.5,
,143 to 145,7,,O/N=C/Nc1ccc(Oc2ccc(Cl)cc2)cc1 [Comp. 128],,102.0,
196,168.5 to 169,,,O/N=C/Nc1cccc2c1CCCC2 [Comp. 231],92.9,,
2.2,171.5 to 172,,,CC#CCOc1ccc(N/C=N/O)cc1 [Comp. 333],119.3,,
,146.5 to 148,,90,CN1CCCCC1COc1ccc(N/C=N/O)cc1 (centres unmarked) [Comp. 417],,,102.8
,102 to 103.5,,1.5,CCOC(=O)CCCCCOc1ccc(N/C=N/O)cc1 [Comp. 424],,,
1.3,125 to 126,,,CCCCCCOc1ccc(N/C=N/O)cc1 [Comp. 320],92.5,,
2.1,165 to 166,,,O/N=C/Nc1ccc(OCc2ccsc2)cc1 [Comp. 367],103,,
0.9,93 to 94,,,CCOCCCOc1ccc(N/C=N/O)cc1 [Comp. 371],110.4,,
,> 300,,3,O=C([O-])CCCCCOc1ccc(N/C=N/O)cc1.[Na+] [Comp. 425],,,
25.9,128 to 130,,,CCCCCCCCCOc1ccc(N/C=N/O)cc1 [Comp. 323],,,
6.6,154 to 155,,,CCCC(=O)c1ccc(N/C=N/O)c(C)c1 [Comp. 232],86.0,,
,116.5 to 117.5,,19.5,O/N=C/Nc1ccc(OCCCCCN2CCCC2)cc1 [Comp. 432],,,
0.7,127 to 128,,,C=CCCCOc1ccc(N/C=N/O)cc1 [Comp. 329],121.1,,
3.2,125 to 126,,,CC(C)=CCOc1ccc(N/C=N/O)cc1 [Comp. 334],105,,
2.8,167 to 167.5,,,O/N=C/Nc1ccc(OCc2cc(F)ccc2F)cc1 [Comp. 384],117.3,,
,155 to 156,6.9,,Cc1ccc(Oc2ccc(N/C=N/O)cc2)cc1 [Comp. 130],,116.5,
,118 to 120,,98,CN(C)CCOc1ccc(N/C=N/O)cc1 [Comp. 399],,,102.3
,151 to 153,163,,Cc1ccc(Cl)c(N/C=N/O)c1 [Comp. 14],,91.7,
,132 to 134.5,,2.2,O/N=C/Nc1ccc(OCCc2ccsc2)cc1 [Comp. 423],,,118.4
3.1,153 to 153.5,,,COc1ccccc1COc1ccc(N/C=N/O)cc1 [Comp. 382],122.5,,

"IC50 [1, 3] [nM]",melting point [°C],"IC50 [1, 5] [nM]","IC50 [1, 6] [nM]",SMILES,"Inhibition rate (1 μM) [1, 2]","Inhibition rate (1 μM) [1, 4]",Inhibition rate (1 μM) ([1]; 1 μM of the subject compound)
3.1,138 to 139.5,,,O/N=C/Nc1ccc(OCCCc2ccccn2)cc1 [Comp. 358],103,,
,119 to 120.5,,1.8,CCC(C)Sc1ccc(N/C=N/O)cc1 (centres unmarked) [Comp. 449],,,105.1
2.1,178 to 178.5,,,COc1ccc(COc2ccc(N/C=N/O)cc2)c(OC)c1 [Comp. 395],111.6,,
3.2,139 to 139.5,,,C#CCCCOc1ccc(N/C=N/O)cc1 [Comp. 331],118.8,,
,139 to 140,45.2,,COc1ccc(N/C=N/O)cc1 [Comp. 18],,94.6,
8.9,104 to 107,,,COCCOc1ccc(N/C=N/O)cc1 [Comp. 346],106.2,,
3.7,121 to 122.5,,,CCCCCCCOc1ccc(N/C=N/O)cc1 [Comp. 321],99.9,,
,151 to 152.5,297,,Cc1ccc(N/C=N/O)c(Cl)c1 [Comp. 11],,92.7,
,125 to 127,,1.5,CCOC(=O)CCCCOc1ccc(N/C=N/O)cc1 [Comp. 433],,,
,121 to 122.5,9,,Cc1cc(N/C=N/O)ccc1C(C)C [Comp. 178],,91.4,
,150.5 to 151.5,,3.1,O/N=C/Nc1ccc(OCCn2cccc2)cc1 [Comp. 411],,,122.4
,139.5 to 141,,7.4,N#CCCCOc1ccc(N/C=N/O)cc1 [Comp. 430],,,
37.5,180 to 180.5,,,O/N=C/Nc1ccc(OCc2ccncc2)cc1 [Comp. 344],107,,
,112 to 113,,2.3,CSCCOc1ccc(N/C=N/O)cc1 [Comp. 413],,,120.2
3.7,80.5 to 81.5,,,COCCOCCOc1ccc(N/C=N/O)cc1 [Comp. 347],105,,
,108 to 108.5,,2.4,OCCCSc1ccc(N/C=N/O)cc1 [Comp. 459],,,119.0
4.6,158.5 to 159.5,,,O/N=C/Nc1ccc(OCc2ccco2)cc1 [Comp. 352],97,,
,100 to 102,,37.6,CN(C)CCCCOc1ccc(N/C=N/O)cc1 [Comp. 401],,,117.4
,166 to 166.5,6.5,,Cc1cc(I)ccc1N/C=N/O [Comp. 47],,94.8,
,160 to 161,,,O/N=C/Nc1ccc(Cl)cc1Cl [Comp. 40],,98.2,
,156 to 157,13.4,,Cc1ccc(N/C=N/O)cc1F [Comp. 161],,88.6,
,93 to 94.5,,,CC(C)c1cccc(N/C=N/O)c1 [Comp. 29],,93.6,

"IC50 [1, 3] [nM]",melting point [°C],"IC50 [1, 5] [nM]","IC50 [1, 6] [nM]",SMILES,"Inhibition rate (1 μM) [1, 2]","Inhibition rate (1 μM) [1, 4]",Inhibition rate (1 μM) ([1]; 1 μM of the subject compound)
3.7,148.5 to 149.5,,,CC(C)(C)COc1ccc(N/C=N/O)cc1 [Comp. 324],99,,
,157 to 158,21.8,,Cc1cc(N/C=N/O)ccc1Br [Comp. 51],,50.2,
,144 to 145.5,,,CCc1cc(C#N)ccc1N/C=N/O [Comp. 56],,50.6,
1.2,129.5 to 133,,,O/N=C/Nc1ccc(OCCC2CCCCC2)cc1 [Comp. 341],104,,
26.2,197.5 to 198,,,O/N=C/Nc1ccc(/C=C/c2ccccc2)cc1 [Comp. 237],96.6,,
3,113 to 114,,,CC(C)OCCOc1ccc(N/C=N/O)cc1 [Comp. 354],106,,
3.2,142.5 to 146,,,C/C=C/COc1ccc(N/C=N/O)cc1 [Comp. 336],117.6,,
2,136.5 to 137.5,,,CC1(C)COC(CCOc2ccc(N/C=N/O)cc2)OC1 [Comp. 364],104,,
,106 to 107.5,28.9,,CCOC(=O)Cc1ccc(N/C=N/O)cc1 [Comp. 122],,94.7,
2.6,141 to 142.5,,,O/N=C/Nc1ccc(OCC2CC2)cc1 [Comp. 356],102,,
2.7,152.5 to 153.5,,,COc1cccc(COc2ccc(N/C=N/O)cc2)c1 [Comp. 390],112.8,,
,132 to 133.5,,1,CSCCCOc1ccc(N/C=N/O)cc1 [Comp. 414],,,113.2
0.9,100 to 102,,,CC/C=C/COc1ccc(N/C=N/O)cc1 [Comp. 338],119.8,,
2.1,135 to 136.5,,,CC#CCCOc1ccc(N/C=N/O)cc1 [Comp. 337],119.4,,
3.8,126 to 137.5,,,CCCCCOc1ccc(N/C=N/O)cc1 [Comp. 319],99.9,,
96.8,165 to 167,,,O/N=C/Nc1ccc(-n2ccc(C(F)(F)F)n2)cc1 [Comp. 273],89.2,,
,127.5 to 129.5,,4.9,O=C1CCCN1CCOc1ccc(N/C=N/O)cc1 [Comp. 407],,,94.3
4.9,162 to 162.5,,,O/N=C/Nc1ccc(N2CCCCC2)cc1 [Comp. 294],103.2,,
0.78,154 to 155,,,O/N=C/Nc1ccc(OCCCc2cccnc2)cc1 [Comp. 363],105,,
2.1,156 to 157,,,O/N=C/Nc1ccc(OCc2cccnc2)cc1 [Comp. 362],106,,
